Measured values: patent publication US9096492B2, “Hydrated N-fullerene amino acids, method for producing the latter, and pharmaceutical compositions on the basis thereof” (priority 2011, dated 2015)
Where two headings read alike, the source gives them in different places.

Legend:
[1] = test system: A/Puerto Rico/8/34 (H1N1) influenza virus; assay type: in vivo, mice; conditions: for Size of chronic post-influenza pneumonia sites (% of the total surface area of the lungs): the lower of the virus doses used, day 15
[2] = test system: A/Vladivostok/2/09 (H1N1) influenza virus; assay type: in vivo, mice; conditions: for Size of chronic post-influenza pneumonia sites (% of the total surface area of the lungs): the lower of the virus doses used, day 15
[3] = Tamiflu 20 mg/kg, Summary dose, n=28
[4] = Tamiflu 20 mg/kg, Summary dose, n=19

Compound: N-fullerene tris(δ-aminocaproic acid) hydrate [Agent 1]
- Average lifetime (LD) ([1]; 30 mg/kg, Summary dose, n=29): 11.8 days
- Increase in LD ([1]; 30 mg/kg, Summary dose, n=29): 1.4 days
- Mortality rate, % ([1]; 30 mg/kg, Summary dose, n=29): 55.2%
- Number of survivors ([1]; 30 mg/kg, Summary dose, n=29): 13
- Average lifetime (LD) ([1]; 30 mg/kg, […], n=14): 13.3 days
- Increase in LD ([1]; 30 mg/kg, […], n=14): 1.0 days
- Mortality rate, % ([1]; 30 mg/kg, […], n=14): 35.7%
- Number of survivors ([1]; 30 mg/kg, […], n=14): 9
- Average lifetime (LD) ([1]; 30 mg/kg, […], n=15): 10.4 days
- Increase in LD ([1]; 30 mg/kg, […], n=15): 2.3 days
- Mortality rate, % ([1]; 30 mg/kg, […], n=15): 73.3%
- Number of survivors ([1]; 30 mg/kg, […], n=15): 4
- Average lifetime (LD) ([1]; 100 mg/kg, Summary dose, n=30): 12.6 days
- Increase in LD ([1]; 100 mg/kg, Summary dose, n=30): 2.2 days
- Mortality rate, % ([1]; 100 mg/kg, Summary dose, n=30): 40.0%
- Number of survivors ([1]; 100 mg/kg, Summary dose, n=30): 18
- Average lifetime (LD) ([1]; 300 mg/kg, Summary dose, n=29): 12.5 days
- Increase in LD ([1]; 300 mg/kg, Summary dose, n=29): 2.2 days
- Mortality rate, % ([1]; 300 mg/kg, Summary dose, n=29): 31.0%
- Number of survivors ([1]; 300 mg/kg, Summary dose, n=29): 20
- Average lifetime (LD) ([1]; 300 mg/kg, […], n=14): 11.3 days
- Increase in LD ([1]; 300 mg/kg, […], n=14): 3.2 days
- Mortality rate, % ([1]; 300 mg/kg, […], n=14): 42.9%
- Number of survivors ([1]; 300 mg/kg, […], n=14): 8
- Average lifetime (LD) ([1]; 300 mg/kg, […], n=15): 13.7 days
- Increase in LD ([1]; 300 mg/kg, […], n=15): 1.3 days
- Mortality rate, % ([1]; 300 mg/kg, […], n=15): 20.0%
- Number of survivors ([1]; 300 mg/kg, […], n=15): 12
- Size of chronic post-influenza pneumonia sites (% of the total surface area of the lungs) ([1]; 300 mg/kg): 13 ± 3%
- Average lifetime (LD) ([2]; 30 mg/kg, Summary dose, n=25): 13.7 days
- Increase in LD ([2]; 30 mg/kg, Summary dose, n=25): 1.4 days
- Mortality rate, % ([2]; 30 mg/kg, Summary dose, n=25): 28.0%
- Number of survivors ([2]; 30 mg/kg, Summary dose, n=25): 18
- Average lifetime (LD) ([2]; 30 mg/kg, […], n=12): 13.2 days
- Increase in LD ([2]; 30 mg/kg, […], n=12): 1.8 days
- Mortality rate, % ([2]; 30 mg/kg, […], n=12): 41.7%
- Number of survivors ([2]; 30 mg/kg, […], n=12): 7
- Average lifetime (LD) ([2]; 30 mg/kg, […], n=13): 14.2 days
- Increase in LD ([2]; 30 mg/kg, […], n=13): 1.0 days
- Mortality rate, % ([2]; 30 mg/kg, […], n=13): 15.4%
- Number of survivors ([2]; 30 mg/kg, […], n=13): 11
- Average lifetime (LD) ([2]; 100 mg/kg, Summary dose, n=22): 13.6 days
- Increase in LD ([2]; 100 mg/kg, Summary dose, n=22): 1.3 days
- Mortality rate, % ([2]; 100 mg/kg, Summary dose, n=22): 27.3%
- Number of survivors ([2]; 100 mg/kg, Summary dose, n=22): 16
- Average lifetime (LD) ([2]; 100 mg/kg, […], n=10): 14.0 days
- Increase in LD ([2]; 100 mg/kg, […], n=10): 0.8 days
- Mortality rate, % ([2]; 100 mg/kg, […], n=10): 20.0%
- Number of survivors ([2]; 100 mg/kg, […], n=10): 8
- Average lifetime (LD) ([2]; 100 mg/kg, […], n=12): 13.3 days
- Increase in LD ([2]; 100 mg/kg, […], n=12): 1.9 days
- Mortality rate, % ([2]; 100 mg/kg, […], n=12): 33.3%
- Number of survivors ([2]; 100 mg/kg, […], n=12): 8
- Average lifetime (LD) ([2]; 300 mg/kg, Summary dose, n=26): 14.2 days
- Increase in LD ([2]; 300 mg/kg, Summary dose, n=26): 1.8 days
- Mortality rate, % ([2]; 300 mg/kg, Summary dose, n=26): 15.4%
- Number of survivors ([2]; 300 mg/kg, Summary dose, n=26): 22
- Size of chronic post-influenza pneumonia sites (% of the total surface area of the lungs) ([2]; 300 mg/kg): 7 ± 2%

Compound: CCOC(=O)C1=C[C@@H](OC(CC)CC)[C@H](NC(C)=O)[C@@H](N)C1.O=P(O)(O)O [Tamiflu, ethyl(3R,4R,5S)-4-acetamido-5-amino-3-(1-ethylpropoxy)-1-cyclohexene-1-carboxylate phosphate, reference compound]
- reduction of the death rate compared to the control ([1]; Tamiflu): approximately 70%
- Average lifetime (LD) [1, 3]: 13.9 days
- Increase in LD [1, 3]: 3.6 days
- Index of protection, % [1, 3]: 66.7%
- Mortality rate, % [1, 3]: 21.4%
- Number of survivors [1, 3]: 22
- Average lifetime (LD) ([1]; Tamiflu 20 mg/kg, […], n=13): 14.4 days
- Increase in LD ([1]; Tamiflu 20 mg/kg, […], n=13): 2.1 days
- Index of protection, % ([1]; Tamiflu 20 mg/kg, […], n=13): 67.0%
- Mortality rate, % ([1]; Tamiflu 20 mg/kg, […], n=13): 15.4%
- Number of survivors ([1]; Tamiflu 20 mg/kg, […], n=13): 11
- Average lifetime (LD) ([1]; Tamiflu 20 mg/kg, […], n=15): 13.5 days
- Increase in LD ([1]; Tamiflu 20 mg/kg, […], n=15): 5.5 days
- Index of protection, % ([1]; Tamiflu 20 mg/kg, […], n=15): 68.5%
- Mortality rate, % ([1]; Tamiflu 20 mg/kg, […], n=15): 26.7%
- Number of survivors ([1]; Tamiflu 20 mg/kg, […], n=15): 11
- Size of chronic post-influenza pneumonia sites (% of the total surface area of the lungs) ([1]; Tamiflu 20 mg/kg): 15 ± 4; %
- activity against the strain ([2]; Tamiflu 20 mg/kg): inactive
- Average lifetime (LD) [2, 4]: 12.5 days
- Increase in LD [2, 4]: 0.2 days
- Index of protection, % [2, 4]: 14.0%
- Mortality rate, % [2, 4]: 36.8%
- Number of survivors [2, 4]: 12
- Average lifetime (LD) ([2]; Tamiflu 20 mg/kg, […], n=9): 13.4 days
- Increase in LD ([2]; Tamiflu 20 mg/kg, […], n=9): 0.3 days
- Index of protection, % ([2]; Tamiflu 20 mg/kg, […], n=9): 18.5%
- Mortality rate, % ([2]; Tamiflu 20 mg/kg, […], n=9): 22.2%
- Number of survivors ([2]; Tamiflu 20 mg/kg, […], n=9): 7
- Average lifetime (LD) ([2]; Tamiflu 20 mg/kg, […], n=10): 11.7 days
- Increase in LD ([2]; Tamiflu 20 mg/kg, […], n=10): 0.3 days
- Index of protection, % ([2]; Tamiflu 20 mg/kg, […], n=10): 16.7%
- Mortality rate, % ([2]; Tamiflu 20 mg/kg, […], n=10): 50.0%
- Number of survivors ([2]; Tamiflu 20 mg/kg, […], n=10): 5
- Size of chronic post-influenza pneumonia sites (% of the total surface area of the lungs) ([2]; Tamiflu 20 mg/kg): 15 ± 5%
